Reference: patent EP3981864A1, “DETERGENT COMPOSITION” (priority 2020, dated 2022)

How the values were obtained:
[1] = system: Phaeosphaeria nodorum αDOX (SEQ ID NO: 2), fatty acid alpha-dioxygenase, Q0URU2, N-terminal His-tag variant SEQ ID NO: 251; test: Alpha-dioxygenase activity assay (oxygen consumption, TON); assay type: biochemical; conditions: fatty acid 100 µM, enzyme 6 ppm, 50 mM HEPES pH 9.0, 37°C; initial rate of oxygen consumption / enzyme concentration
Description: (§1) Phaeosphaeria nodorum αDOX (SEQ ID NO: 2) is a fatty acid alpha-dioxygenase that converts fatty acids into the corresponding 2-hydroperoxy fatty acids and is included as an example of the present invention. A codon optimized gene (SEQ ID NO: 250) encoding for an alpha-dioxygenase variant (SEQ ID NO: 251), including an N-terminal amino acid sequence containing a His-tag was designed and synthesized by Genscript. After gene synthesis, the protein was expressed and purified. In brief, the complete synthetic gene sequence was subcloned into a pET30a vector using the NdeI/HindIII cloning sites. For heterologous expression, Escherichia coli BL21 (DE3) cells were transformed with the recombinant plasmid and a single colony was inoculated into LB medium containing kanamycin (50 mg/L). A pre-starter culture was then inoculated into flasks containing Magic Media (Thermo Fisher, Catalog # K6803) supplemented with kanamycin (50 mg/L) and incubated at 16 °C for 72 h. At an OD600nm = 0.5 - 1.0, 5-aminolevulinic acid (final concentration 0.5 mM) was added. Cells were harvested by centrifugation at 5000 rpm and 4°C and the pellet was lysed using a bacterial cell lysis buffer (B-PER - Themo Fisher, Waltham, MA). After centrifugation, the supernatant was collected, and the protein was purified by one-step purification using HisPur™ Ni-NTA Spin Columns (Thermo Scientific, Catalog # 88226) and standard protocols known in the art. The protein was concentrated using a 10 kDa MW cutoff Amicon Ultra centrifugal filter unit (Millipore Sigma, Catalog# UFC901024), followed by desalting using a disposable PD-10 desalting column (GE Healthcare Life Sciences, Catalog# 17085101) and a buffer containing 50 mM Tris-HCl, 500 mM NaCl, and 10% Glycerol at pH 8.0. […]
(§2) Reactions with alpha-dioxygenases were performed as follows. […] The reaction was incubated for up to 10 minutes at 37°C with 200 rpm agitation and the conversion was monitored using an oxygen sensor. The TON (in s-1) were calculated as the ratio between the initial rate of oxygen consumption (in µM/s) and the concentration of enzyme (in µM). […]

[2] = system: Pseudomonas alcaligenes αDOX (SEQ ID NO: 12), fatty acid alpha-dioxygenase, U3BA19, N-terminal His-tag variant SEQ ID NO: 271 (comparative); test: as above; assay type: biochemical; conditions: fatty acid 100 µM, enzyme 6 ppm, 50 mM HEPES pH 9.0, 37°C; initial rate of oxygen consumption / enzyme concentration
Description: as §1, with “Pseudomonas alcaligenes αDOX” for “Phaeosphaeria nodorum αDOX”, “NO: 12)” for “NO: 2)”, “as a comparative” for “as an”, “NO: 270)” for “NO: 250)”, “NO: 271),” for “NO: 251),”
as §2

For `CCCCCCCC/C=C\CCCCCCCC(=O)O` [Oleic Acid], the “Oleic Acid, TON” value [1] was 0.99 s⁻¹ and the “Oleic Acid, TON” value [2] was 0.00 s⁻¹.

For `CCCCCCCCCCCCCCCC(=O)O` [Palmitic Acid], the “Palmitic Acid, TON” value [1] was 20.63 s⁻¹ and the “Palmitic Acid, TON” value [2] was 0.36 s⁻¹.

With `CCCCCCCCCCCCCCCCCC(=O)O` [Stearic Acid] the “Stearic Acid, TON” value [1] was 8.80 s⁻¹ and the “Stearic Acid, TON” value [2] was 0.21 s⁻¹.
